From PMC11474028, “Lipopeptide antibiotics disrupt interactions of undecaprenyl phosphate with UptA” (Proceedings of the National Academy of Sciences of the …, 2024)
Read-outs that look alike come from different tables or passages of the source.

Key:
UptA [1] = target: T1, UptA (Bacillus subtilis, UniProt O31823); test: Native MS competition of C55-P and phospholipids for UptA binding; details: 4 µM UptA and 10 µM C55-P, increasing DOPG (up to 20 µM) or DOPE
Method: To investigate whether or not C55-P can outcompete phospholipids in binding to UptA, we incubated solutions containing UptA-DOPG with increasing concentrations of C55-P. Spectra were recorded after aliquots of the solution were equilibrated on ice for 15 min. […] We therefore hypothesised that phospholipids should be unable to outcompete C55-P bound to UptA. To test this hypothesis, we incubated UptA with C55-P and then equilibrated aliquots with an increasing concentration of DOPG. […]
The chloroform layer containing the total lipids was recovered into a clean glass vial, and the organic solvent was evaporated in a SpeedVac for 16 h. Lipid film was resuspended 200 mM ammonium acetate, 0.05% LDAO (pH 8.0) to ~0.5 mg/mL for the binding experiments.
Sample preparation for native MS
Before measurements, the protein was buffer-exchanged into 0.05% LDAO, 200 mM ammonium acetate (“MS buffer”) at the desired pH using a centrifugal buffer exchange device (Micro Bio -Spin 6, Bio-Rad). Stock solutions of lipids were prepared from chloroform/methanol solution by evaporating aliquots of known volume in a SpeedVac. After drying, the lipid films were weighed and resuspended to a final concentration of 0.5 mM in 200 mM ammonium acetate (pH8) and 0.05% LDAO by vertexing. Stock solutions of 0.5 mM amphomycin, aspartocin D, daptomycin and bacitracin, were made in the same buffer. All experiments were repeated three times from newly prepared stock solutions.
About 3 μL protein aliquot was transferred into a gold-coated borosilicate capillary (Harvard Apparatus) and was mounted on the nano ESI source of a Q-Exactive hybrid quadrupole-Orbitrap mass spectrometer (Thermo Fisher Scientific, Bremen, Germany). The instrument settings were 1.2 kV capillary voltage, S-lens RF 200%, argon UHV pressure 3.3 × 10−10 mbar, the capillary temperature was set to 200 °C, and resolution of the instrument was set to 17,500 at a transie nt time of 64 ms. […] The resulting fragments were detected in the Orbitrap (R = 280,000 @ m/z 200), averaging ~500 transients to maximise the signal-to-noise ratio. […]

UptA [2] = target: T1, UptA; test: Native MS of phospholipid binding to UptA
Text: Proteins belonging to the DedA family are a widespread family of transporters and are proposed to flip diverse lipids, including carrier lipids and membrane phospholipids. We therefore probed the interaction of UptA with membrane phospholipids to understand whether the latter could modulate its function. For this purpose, we selected anionic phosphatidylglycerols (PG) and zwitterionic phosphatidylethanolamines (PE), representing the major classes of phospholipid headgroups found in B. subtilis ([41], [42]). We recorded mass spectra of solutions containing 4 µM UptA incubated with 10 µM a15:0-i15:0 PE and 10 µM a15:0-i15:0 PG (a15:0, anteiso-pentadecanoic acid; i15:0, iso-pentadecanoic acid). The fatty acid composition of these lipids closely mimics those of native B. subtilis lipids (see below). The resulting spectra display peaks corresponding to UptA in apo and lipid-bound forms in both cases (Fig. 4 A and B). […] We therefore hypothesize that UptA interacts more favorably with PG than with PE.
To verify the lipid binding preference of UptA with more native-like lipids, we prepared lipid extracts from B. subtilis membranes (Materials and Methods). We then incubate an aliquot of the resulting crude lipids (SI Appendix, Fig. S8) with UptA. The spectra yielded peaks assigned to UptA in complex with cardiolipins (~1,326 Da) and a range of phospholipids, predominantly 694 Da, 721 Da, 748 Da, and 776 Da species (Fig. 4 D and E). To identify these lipids, we performed tandem MS/MS, isolating the lipid species and subjecting it to collisional activation. […] The fatty acid fragments are mixed populations, predominantly 15:0-15:0, 15:0-17:0, 16:0-16:0, and 16:0-18:1 (SI Appendix, Fig. S9) which are the typical fatty acids from B. subtilis membrane phospholipids ([42]). We therefore conclude that UptA interacts more favorably with the anionic cardiolipins and phosphatidylglycerols than with the zwitterionic phosphatidylethanolamines in the membrane lipid extracts.
(§1) Detailed experimental procedures are provided in SI Appendix. Briefly, UptA (wild type and mutants) was expressed in E. coli C43(DE3) cells (Lucigen) with GFP fusion on the C-terminus and solubilized from the membrane fraction by n-dodecyl-β-D-maltopyranoside (DDM). After purification by affinity chromatography, the GFP was cleaved by TEV protease and removed, and UptA was further purified by size-exclusion chromatography in a buffer containing 20 mM Tris-HCl (pH 8.0), 200 mM NaCl, 0.02% DDM. Before measurements, proteins were buffer-exchanged into 0.05% LDAO, 200 mM ammonium acetate at the desired pH using a centrifugal buffer exchange device (Micro Bio-Spin 6, Bio-Rad). Stock solutions of lipids were prepared from chloroform/methanol solution by evaporating aliquots of known volume in a SpeedVac. After drying, the lipid films were weighed and resuspended to a final concentration of 0.5 mM in 200 mM ammonium acetate and 0.05% LDAO by vertexing. Stock solutions of 0.5 mM amphomycin, aspartocin D, daptomycin, polymyxin B, polymyxin E, and bacitracin were made in the same buffer. All experiments were repeated three times from newly prepared stock solutions. Native mass spectrometry was performed on a Q-Exactive hybrid quadrupole-Orbitrap mass spectrometer (Thermo Fisher Scientific, Bremen, Germany), and lipid identification was performed on an Orbitrap Eclipse Tribrid mass spectrometer (Thermo). […]
Lipid extracts from B. Subtilis
B. subtilis strain 168 (ATCC 23857) was cultivated in […] LB media at 37 °C until OD600 nm 1.2 under aurobic conditions. Cells were harvested by centrifugation at 4,000 g for 20 minutes and resuspended in 20 mM Tris-HCl (pH 8.0), 150 mM NaCl. Cells were lysed by 5-6 passes through a microfluidizer at 20,000 psi. The lysates were clarified by centrifugation at 4,000 g for 10 minutes, and the totoal membrane was pelleted at 120,000 g for 1 h. The membrane pellet was ressupended […]

MurJ = details: read-out: Kd, MurJ/lipid II; cited from earlier work
Method: (§2) We explored the binding affinity of UptA toward C55-P by recording mass spectra for solutions containing 2.5 µM UptA and 0 to 40 µM C55-P in 200 mM ammonium acetate, 0.05% LDAO at pH 8.0. […] Further increase in the concentration of C55-P enhanced the intensity of the UptA:C55-P complex, together with the emergence of additional binding events (Fig. 2A). We deconvoluted the spectra ([34]) to extra ...

MurG = details: read-out: Kd, MurG/lipid I; cited from earlier work
Method: as §2

[3] = cited from earlier work
Text: To this end, we prepared UptA:C55-P mixtures and then equilibrated aliquots with bacitracin and vancomycin. […] Despite the combined cellular pool of C55-PP and C55-P being limited to ~1.5 × 10^5 molecules per cell ([56]), they mediate the transport of glycan-bearing components of the cell wall peptidoglycan, teichoic acid, and capsular polysaccharid ...

UptA [4] = target: T1, UptA; test: Native MS of antibiotic binding to UptA; details: 2.5 µM UptA, 10 µM C55-P, antibiotic up to 100 µM (polymyxins 100 µM), 0.05% LDAO, 200 mM ammonium acetate, 75 V
Method: We next investigate how UptA and its complex with C55-P interact with a range of cell-wall targeting antibiotics including the lipopeptides daptomycin and amphomycin. […] We investigated whether daptomycin affects C55-P binding to UptA by recording spectra for solutions containing 2.5 µM UptA, 10 µM C55-P, and different concentrations of daptomycin.
(§3) Amphomycin and derivatives are known to kill bacteria by forming complexes with free C55-P ([46]), however, whether or not this involves a direct interaction with a protein cellular target is not known. We therefore investigated how amphomycin affects the UptA:C55-P complex. We recorded spectra for solutions containing 2.5 µM UptA, 10 µM C55-P and then equilibrated aliquots with increasing concentrations of amphomycin.
The amphiphilic nature of daptomycin and amphomycin raises the possibility that these lipopeptide antibiotics may promiscuously bind to UptA in a nonspecific manner. We probe this possibility by recording spectra for UptA:C55-P solutions in the presence of 100 µM polymyxin B and 100 µM polymyxin E. These polymyxins are membrane-disrupting lipopeptides that target the outer membrane lipopolysaccharides in Gram-negative bacteria ([47]) but without a known affinity for C55-P or UptA.
To this end, we prepared UptA:C55-P mixtures and then equilibrated aliquots with bacitracin and vancomycin.
as §1

UptA:C55-P complex = test: Native MS of UptA:C55-P complex in the presence of antibiotics; format: binding, Bacillus subtilis; details: 2.5 µM UptA, 10 µM C55-P, 0 to 100 µM antibiotic, 75 V; mean of three independent replicates
Method: as §3
(A) Mass spectra (6+ charge state) for solutions containing 2.5 µM UptA and 10 µM C55-P incubated with 0 to 100 µM amphomycin. (B) Relative intensity of C55-P bound to UptA in the presence of amphomycin and daptomycin. The bar represents the mean of three independent replicates shown as data points and error bars are SD. […] (C) Fraction of C55-P bound to UptA in the presence of cell wall targeting antibiotics. Each sample contains 2.5 µM UptA, 10 µM C55-P and 100 µM of indicated antibiotic, and spectra were acquired using the same instrument settings and collisional activation of 75 V. The bar represents the mean of three independent replicates shown as data points, and the error bar represents SD. […]
as §1

[5] = target: the molecule itself; test: native MS; UptA 2.2 µM (E32A 2.5 µM, with 10 µM C55-P) in 200 mM ammonium acetate pH 8.0, 0.05% LDAO; dimer 9+ charge state isolated and dissociated into protomers by HCD (190 V); more dimer at pH 8.0 than at pH 5.0

For `CCCCCCCC/C=C\CCCCCCCC(=O)OC[C@H](COP(=O)(O)OCC(O)CO)OC(=O)CCCCCCC/C=C\CCCCCCCC` (stereo partly drawn) [18:1-18:1 PG], the “displacement of C55-P from UptA by phospholipid (in words)” value (UptA [1]) was “C55-P remains bound to UptA even in the presence of excess DOPG (20 µM)”, the “mean relative intensity of UptA in complex with phospholipid, comparison (in words)” value (UptA [2]; 4 µM UptA with 10 µM lipid (stated for a15:0-i15:0 lipids), mean of three independent replicates) was “bind to UptA more intensely than 16:0-18:1 PE and 18:1-18:1 PE, respectively” and the “UptA-lipid complexes formed (stoichiometry, in words)” value (UptA [2]; 4 µM UptA with 10 µM lipid, native MS) was “binding of 1 to 2 molecules of DOPG per UptA”.

For lipid II, the Kd (MurJ) is listed as 2.9 ± 0.6 µM.

In the case of `CC(=O)N[C@H]1[C@@H](OP(=O)(O)OP(=O)(O)OC/C=C(/C)CC/C=C(/C)CC/C=C(/C)CC/C=C(/C)CC/C=C(/C)CC/C=C(/C)CC/C=C(/C)CC/C=C(\C)CC/C=C(\C)CC/C=C(\C)CCC=C(C)C)O[C@H](CO)[C@@H](O)[C@@H]1O[C@H](C)C(=O)N[C@@H](C)C(=O)N[C@H](CCC(=O)N[C@@H](CCCCN)C(=O)N[C@H](C)C(=O)N[C@H](C)C(=O)O)C(=O)O` [lipid I], the Kd (MurG) is given as 1.89 ± 0.6 µM.

For bacitracin, the “complex formation with or sequestration of C55-PP (in words)” value (from here on “complex formation with or sequestration”) [3] is listed as “form complex with C55-PP”, the “complex formation with or sequestration” value ([3]; listed as Bacitracin) is listed as “sequestration of C55-PP” and the “binding of antibiotic to UptA (in words)” value (UptA [4]) is listed as “bind to UptA but with very low intensities”. The “effect of antibiotic on UptA:C55-P complex (in words)” value (UptA:C55-P complex) was “modestly competes against C55-P binding to UptA”.

In the case of `CCCCCCCC/C=C\CCCCCCCC(=O)OC[C@H](COP(=O)(O)OCCN)OC(=O)CCCCCCC/C=C\CCCCCCCC` [18:1-18:1 PE], the “displacement of C55-P from UptA by phospholipid (in words)” value (UptA [1]) is reported as “could not efficiently displace C55-P from UptA”.

In the case of teixobactin, the “complex formation with or sequestration” value [3] is given as “form complex with C55-PP”.

B1: UptA (undecaprenyl phosphate transporter A), Bacillus subtilis, wild type (natural protein, UniProt O31823 1-198, looked up)
chain: MGSLISEILTWLTNMGYAGIAIGLMIEIIPSEIVLAYGGYMVSEGTIGFIGAIIAGVIGGTIAQIFIYWIGRYGGRPFLDKYGKYLLIKKHHIDMSENWFQKYGAGVVFSARFIPVVRHAISIPAGIARMPFLKFVVLTVLAIIPWSILFVYLGIQLGSQWDDVENIAGTYTTPIMILAVVVIALYFVIKKRTAIFKR
modifications: formylation of the N-terminal methionine
notes: UptA, DedA family membrane protein of Bacillus subtilis; detailed procedures are in SI Appendix; In equilibrium of monomers and dimers; also called WT; not shown: GFP, C-terminal, cleaved
With B1 the “stoichiometry N” value [5] was 2.
